Results: ChEMBL document CHEMBL5537195, “Novel Covalent Probe Selectively Targeting Glutathione Peroxidase 4 In Vivo: Potential Applications in Pancreatic Cancer Therapy” (J Med Chem, 2024)
The source made the active and inactive calls. No cut-off for these calls is given here.

Experiments:
HPAF-II = test: Antiproliferative activity against human HPAF-II cells assessed as inhibition of cell growth incubated for 72 hrs by CCK-8 assay; assay type: functional, cell-based
[1] = target: T1, Phospholipid hydroperoxide glutathione peroxidase GPX4 (Homo sapiens) (UniProt P36969); test: Competitive binding affinity to GPX4 in human ASPC1 cells at 0.2 uM incubated for 1 hr in presence of ML162 by immunofluorescence based confocal microscopic analysis; assay type: cell-based
T1 sequence (whole entry): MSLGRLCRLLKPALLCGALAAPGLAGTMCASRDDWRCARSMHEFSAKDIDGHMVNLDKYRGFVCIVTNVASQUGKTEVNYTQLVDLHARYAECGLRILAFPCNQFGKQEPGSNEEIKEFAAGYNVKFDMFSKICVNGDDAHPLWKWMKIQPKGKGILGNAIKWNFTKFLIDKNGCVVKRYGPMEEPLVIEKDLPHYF

For `C#CCN(Cc1ccc(S(=O)(=O)N(C)C#C)cc1)c1ccc(-c2nc3ccccc3s2)cc1`, the IC50 (HPAF-II) was 20 nM and the Activity [1] was “inactive”.
